Experimental data: the supplement of paper PMC10307832

Key:
Assay in all cases: relative viability (nuclei count vs DMSO), 5 days (fraction); higher = more cells survive
Doxorubicin + Navitoclax = compound: COc1cccc2c1C(=O)c1c(O)c3c(c(O)c1C2=O)C[C@@](O)(C(=O)CO)C[C@@H]3O[C@H]1C[C@H](N)[C@H](O)[C@H](C)O1 [Doxorubicin] + CC1(C)CCC(c2ccc(Cl)cc2)=C(CN2CCN(c3ccc(C(=O)NS(=O)(=O)c4ccc(N[C@H](CCN5CCOCC5)CSc5ccccc5)c(S(=O)(=O)C(F)(F)F)c4)cc3)CC2)C1 [Navitoclax] (partner 0.5 µM)
Outline: (§1)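 Lung cancer cell lines were seeded in 1536-well plates and dosed by pin tool the next day, with either a single drug or a fixed anchor-drug dose combined with five library-drug doses (not always all listed) spaced in √10 steps. Five days later, one step fixed the cells and stained their nuclei (final 0.05% Triton X-100, 1% formaldehyde, 1 ug/ml Hoechst), and nuclei were counted on 4× images. Relative viability is the nuclei count in treated wells divided by the count in vehicle wells, and each value is the median of duplicate plates.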

BAY61-3606 + Tozasertib = compound: COC1=C(C=C(C=C1)C2=CC3=NC=CN3C(=N2)NC4=C(C=CC=N4)C(=O)N)OC [BAY61-3606] + Cc1cc(Nc2cc(N3CCN(C)CC3)nc(Sc3ccc(NC(=O)C4CC4)cc3)n2)n[nH]1 [Tozasertib] (partner 0.1 µM)
Outline: as §1

Doxorubicin + Crizotinib = compound: COc1cccc2c1C(=O)c1c(O)c3c(c(O)c1C2=O)C[C@@](O)(C(=O)CO)C[C@@H]3O[C@H]1C[C@H](N)[C@H](O)[C@H](C)O1 [Doxorubicin] + C[C@@H](Oc1cc(-c2cnn(C3CCNCC3)c2)cnc1N)c1c(Cl)ccc(F)c1Cl [Crizotinib] (partner 1 µM)
Outline: as §1

Doxorubicin + Pemetrexed = compound: COc1cccc2c1C(=O)c1c(O)c3c(c(O)c1C2=O)C[C@@](O)(C(=O)CO)C[C@@H]3O[C@H]1C[C@H](N)[C@H](O)[C@H](C)O1 [Doxorubicin] + Nc1nc2[nH]cc(CCc3ccc(C(=O)N[C@@H](CCC(=O)O)C(=O)O)cc3)c2c(=O)[nH]1 [Pemetrexed] (partner 0.2 µM)
Outline: as §1

Row | Cell Line | relative viability (Doxorubicin + Navitoclax; first compound 0.001 µM) | relative viability (Doxorubicin + Navitoclax; first compound 0.003162 µM) | relative viability (Doxorubicin + Navitoclax; first compound 0.01 µM) | relative viability (Doxorubicin + Navitoclax; first compound 0.03162 µM) | relative viability (Doxorubicin + Navitoclax; first compound 0.1 µM) | relative viability (BAY61-3606 + Tozasertib; first compound 0.02 µM) | relative viability (BAY61-3606 + Tozasertib; first compound 0.06325 µM) | relative viability (BAY61-3606 + Tozasertib; first compound 0.2 µM) | relative viability (BAY61-3606 + Tozasertib; first compound 0.6325 µM) | relative viability (BAY61-3606 + Tozasertib; first compound 2 µM) | relative viability (Doxorubicin + Crizotinib; first compound 0.001 µM) | relative viability (Doxorubicin + Crizotinib; first compound 0.003162 µM) | relative viability (Doxorubicin + Crizotinib; first compound 0.01 µM) | relative viability (Doxorubicin + Crizotinib; first compound 0.03162 µM) | relative viability (Doxorubicin + Crizotinib; first compound 0.1 µM) | relative viability (Doxorubicin + Pemetrexed; first compound 0.001 µM) | relative viability (Doxorubicin + Pemetrexed; first compound 0.003162 µM) | relative viability (Doxorubicin + Pemetrexed; first compound 0.01 µM) | relative viability (Doxorubicin + Pemetrexed; first compound 0.03162 µM) | relative viability (Doxorubicin + Pemetrexed; first compound 0.1 µM)
1 | NCI-H1915 | 0.778 | 0.813 | 0.788 | 0.784 | 0.829 | 0.416 | 0.329 | 0.365 | 0.277 | 0.152 | 0.917 | 0.915 | 0.871 | 0.889 | 0.952 | 0.533 | 0.529 | 0.525 | 0.568 | 0.502
2 | LOU-NH91 |  | 0.561 | 0.711 | 0.444 | 0.405 | 0.617 | 0.363 | 0.473 | 0.422 | 0.344 |  | 0.763 | 0.772 | 0.674 | 0.711 |  | 0.415 | 0.359 | 0.365 | 0.276
3 | NCI-H1734 | 0.788 | 1.02 | 0.847 | 0.696 | 0.84 | 0.238 | 0.243 | 0.222 | 0.227 | 0.196 | 0.714 | 0.788 | 0.583 | 0.517 | 0.588 | 0.468 | 0.404 | 0.398 | 0.448 | 0.421
4 | LCLC-97TM1 | 0.284 | 0.411 | 0.524 | 0.398 | 0.331 | 0.17 | 0.184 | 0.233 | 0.147 | 0.0986 | 0.365 | 0.455 | 0.244 | 0.344 | 0.371 | 0.188 | 0.179 | 0.179 | 0.17 | 0.181
5 | HCC-366 |  | 1.03 | 0.99 | 0.809 | 1.07 | 0.115 | 0.0576 | 0.0642 | 0.0443 | 0.0501 |  | 0.697 | 0.509 | 0.236 | 0.333 | 0.301 | 0.18 | 0.171 | 0.201 | 0.161
6 | BEN | 0.0762 | 0.071 | 0.0683 | 0.0474 | 0.0661 | 0.489 | 0.494 | 0.648 | 0.673 | 0.465 | 0.925 | 0.968 | 0.825 | 0.707 | 0.832 | 0.899 | 0.78 | 0.926 | 0.631 | 0.701
7 | NCI-H441 |  | 0.688 | 0.351 | 0.308 | 0.423 | 0.636 | 0.558 | 0.363 | 0.314 | 0.274 | 0.827 | 0.644 | 0.63 | 0.487 | 0.48 | 0.253 | 0.264 | 0.265 | 0.229 | 0.224
8 | ChaGo-K-1 | 1.16 | 0.807 | 0.888 | 0.515 | 0.316 | 0.237 | 0.21 | 0.232 | 0.22 | 0.223 | 1.15 | 1.01 | 0.98 | 0.45 | 0.378 | 0.264 | 0.254 | 0.231 | 0.259 | 0.273
9 | COR-L 105 | 0.965 | 0.721 | 0.724 | 0.48 | 0.377 | 0.349 | 0.334 | 0.339 | 0.36 | 0.244 | 0.802 | 0.841 | 0.598 | 0.38 | 0.248 | 0.87 | 1.2 | 1.05 | 0.808 | 0.618
10 | NCI-H1993 | 0.947 | 0.876 | 0.884 | 1.01 | 0.889 | 0.521 | 0.582 | 0.621 | 0.59 | 0.577 | 1.08 | 0.812 | 0.839 | 0.721 | 0.822 | 0.603 | 0.685 | 0.58 | 0.57 | 0.528
11 | NCI-H2009 | 1.21 | 1.15 | 1.17 | 0.962 | 0.604 | 0.847 | 0.648 | 0.67 | 0.651 | 0.511 | 1.06 | 0.991 | 0.893 | 0.352 | 0.222 | 1.04 | 0.987 | 1.01 | 0.788 | 0.617
12 | NCI-H23 |  | 0.686 | 0.767 | 0.698 | 0.926 | 0.378 | 0.342 | 0.296 | 0.342 | 0.236 |  | 0.479 | 0.507 | 0.298 | 0.449 | 0.515 | 0.685 | 0.667 | 0.661 | 0.444
13 | NCI-H2405 |  | 0.779 | 0.851 | 0.639 | 0.493 | 0.698 | 0.426 | 0.479 | 0.491 | 0.287 | 0.843 | 0.869 | 0.846 | 0.871 | 0.85 | 1.05 | 1.11 | 1.05 | 0.942 | 0.445
14 | HCC-44 | 1.01 | 1.15 | 0.969 | 1.01 | 1.03 | 0.91 |  | 0.832 | 0.533 | 0.327 | 0.868 | 0.915 | 0.824 | 0.81 | 0.785 | 0.625 | 0.698 | 0.625 | 0.685 | 0.63
15 | EMC-BAC-2 | 1.16 | 1.25 | 1.16 | 1.19 | 1.15 | 0.288 | 0.19 | 0.243 | 0.238 | 0.225 | 0.793 | 0.824 | 0.748 | 0.674 | 0.692 | 0.491 | 0.48 | 0.444 | 0.409 | 0.369
16 | NCI-H322M | 1.18 | 1.19 | 1.15 | 1.31 | 1.26 | 0.498 | 0.477 | 0.48 | 0.421 | 0.412 | 1.02 | 1.07 | 0.86 | 0.922 | 0.893 | 0.682 | 0.542 | 0.66 | 0.548 | 0.512
17 | SK-MES-1 | 1.28 | 0.745 | 1.09 | 1.01 | 0.76 | 0.889 | 0.819 | 0.623 | 0.61 | 0.135 | 1.08 | 1.05 | 0.97 | 0.871 | 0.865 | 0.926 | 0.899 | 0.872 | 0.291 | 0.234
18 | NCI-H2170 | 0.584 | 0.726 | 0.567 | 0.389 | 0.597 | 0.714 | 0.475 | 0.751 | 0.607 | 0.213 | 1.25 | 1.46 | 1.23 | 1.03 | 1.32 | 0.248 | 0.265 | 0.32 | 0.252 | 0.274
19 | EPLC-272H | 1.11 | 1.37 | 0.971 | 1.11 | 1.05 | 0.262 | 0.247 | 0.362 | 0.242 | 0.157 | 1.37 | 0.965 | 1.01 | 0.806 | 0.861 | 0.365 | 0.372 | 0.377 | 0.322 | 0.298
20 | NCI-H1975 | 1.2 | 1.22 | 1.06 | 0.791 | 0.569 | 0.763 | 0.521 | 0.323 | 0.257 | 0.11 | 0.853 | 1.09 | 0.946 | 0.431 | 0.423 | 0.268 | 0.29 | 0.277 | 0.306 | 0.225
21 | NCI-H520 | 1.06 | 1.29 | 1.02 | 0.886 | 1 | 0.48 | 0.432 | 0.461 | 0.452 | 0.356 | 0.649 | 0.597 | 0.793 | 0.616 | 0.501 | 0.789 | 0.728 | 0.681 | 0.703 | 0.604
22 | NCI-H1355 | 0.982 | 1.1 | 0.911 | 0.904 | 1.06 | 0.568 | 0.344 | 0.49 | 0.344 | 0.214 | 1.05 | 1.16 | 1.01 | 0.964 | 1.05 | 1 | 1.02 | 1 | 1.01 | 1.04
23 | NCI-H2347 | 0.628 | 0.768 | 0.77 | 0.71 | 0.85 | 0.531 | 0.384 | 0.394 | 0.427 | 0.32 | 0.869 | 0.735 | 0.735 | 0.603 | 0.503 | 0.417 | 0.424 | 0.42 | 0.507 | 0.463
24 | LC-2-ad | 0.386 | 0.384 | 0.567 | 0.496 | 0.506 | 0.404 | 0.308 | 0.387 | 0.44 | 0.345 | 0.265 | 0.414 | 0.459 | 0.416 | 0.389 | 0.267 | 0.255 | 0.264 | 0.305 | 0.288
25 | NCI-H838 | 1.12 | 1.17 | 1.12 | 0.905 | 0.423 | 0.285 | 0.224 | 0.234 | 0.23 | 0.224 | 0.8 | 0.877 | 0.87 | 0.417 | 0.234 | 0.252 | 0.228 | 0.229 | 0.256 | 0.236
26 | NCI-H2087 | 0.973 | 1.05 | 1.05 | 0.967 | 0.918 | 0.223 | 0.253 | 0.166 | 0.176 | 0.157 | 0.795 | 0.952 | 0.923 | 0.661 | 0.666 | 0.577 | 0.731 | 0.579 | 0.615 | 0.668
27 | NCI-H596 | 0.931 | 0.963 | 0.903 | 0.832 | 0.972 | 1.2 | 0.941 | 0.746 | 0.844 | 0.435 | 0.984 | 1.13 | 0.916 | 0.91 | 0.933 | 0.499 | 0.505 | 0.526 | 0.473 | 0.486
